Source: US20240261333A1, “NOVEL TARGETS FOR ENHANCING ANTI-TUMOR IMMUNITY” (THE BROAD INSTITUTE, INC., priority 2021, published 2024)

What was measured:
[1] = test system: ESO T cells co-cultured with A375 cells; assay: IFNγ ELISA in culture media of the T cell cytotoxicity assay; type: cell-based, human; conditions: B3GNT2-overexpressing A375 pretreated with inhibitor, E:T ratio of 3; kifunensine having a stronger effect
Protocol: Expanded T cells were thawed and maintained in culture media for 8-10 h before incubation with cancer cells. Cancer cells were seeded in 96-well plates and allowed to attach for 3-4 h before T cells were added at the appropriate effector to target cell (E:T) ratio. Paired controls with no T cells added were included for each condition. After 18 h, cancer cells were washed twice with PBS to remove T cells, passaged, and cultured for 2 days. Primary patient-derived cell models were not passaged after T cell co-culture. Viability was measured using CellTiter-Glo (Promega G7571). For each E:T ratio, percent survival was calculated as viability of the cells incubated with T cells divided by viability of the paired control that was not incubated with T cells. […]
To challenge cells with cytokines, cells were incubated with Interferon-γ (IFNγ; Cell Signaling Technology 80385S), FasL (AdipoGen AG-40B-0130-3010), TRAIL (R&D Systems 375-TL-010), or TNF-α (AdipoGen AG-40B-0019-3010) for 24 h. […] Cell viability was measured using CellTiter-Glo (Promega G7571) and protein was harvested for Western blots. […] IFNγ in the cell culture media of the T cell cytotoxic assay was quantified using an ELISA kit (Thermo Fisher Scientific KHC4021). […]

[2] = test system: SW1417 (HER2+) colorectal adenocarcinoma cells; assay: T cell cytotoxicity assay, SW1417 against HER2 CAR T cells; type: cell-based, human; conditions: SW1417 treated with small molecule inhibitor
Protocol: (§1) Expanded T cells were thawed and maintained in culture media for 8-10 h before incubation with cancer cells. Cancer cells were seeded in 96-well plates and allowed to attach for 3-4 h before T cells were added at the appropriate effector to target cell (E:T) ratio. Paired controls with no T cells added were included for each condition. After 18 h, cancer cells were washed twice with PBS to remove T cells, passaged, and cultured for 2 days. Primary patient-derived cell models were not passaged after T cell co-culture. Viability was measured using CellTiter-Glo (Promega G7571). For each E:T ratio, percent survival was calculated as viability of the cells incubated with T cells divided by viability of the paired control that was not incubated with T cells. For example, CD274-overexpressing melanoma cells that were co-cultured with ESO T cells were compared to CD274-overexpressing melanoma cells that were cultured without T cells in parallel. As an alternative cytotoxicity assay, A375 cells stably expressing Gaussia luciferase were co-cultured with ESO T cells. At each time point, 10% of cell culture media was used for the Gaussia luciferase assay (Targeting Systems GAR-2B) to directly measure cytotoxicity. […]

[3] = target: Golgi Class I mannosidases IA, IB and IC; conditions: cited from earlier work
[4] = test system: A375 (NY-ESO-1+, HLA-A2+) melanoma cells; assay: T cell cytotoxicity assay (CellTiter-Glo), A375 against ESO T cells; type: cell-based, human
Protocol: Expanded T cells were thawed and maintained in culture media for 8-10 h before incubation with cancer cells. Cancer cells were seeded in 96-well plates and allowed to attach for 3-4 h before T cells were added at the appropriate effector to target cell (E:T) ratio. Paired controls with no T cells added were included for each condition. After 18 h, cancer cells were washed twice with PBS to remove T cells, passaged, and cultured for 2 days. Primary patient-derived cell models were not passaged after T cell co-culture. Viability was measured using CellTiter-Glo (Promega G7571). For each E:T ratio, percent survival was calculated as viability of the cells incubated with T cells divided by viability of the paired control that was not incubated with T cells. For example, CD274-overexpressing melanoma cells that were co-cultured with ESO T cells were compared to CD274-overexpressing melanoma cells that were cultured without T cells in parallel. As an alternative cytotoxicity assay, A375 cells stably expressing Gaussia luciferase were co-cultured with ESO T cells. At each time point, 10% of cell culture media was used for the Gaussia luciferase assay (Targeting Systems GAR-2B) to directly measure cytotoxicity.
(§2) For glycosylation inhibition, cells were treated with 20 μg/mL Kifunensine (Cayman Chemical 10009437) or 2 mM Benzyl 2-acetamido-2-deoxy-alpha-D-galactopyranoside (BAG; Millipore Sigma B4894-100MG) for 48 h to inhibit N- and O-glycosylation respectively unless otherwise indicated. For MCL1 inhibition, cells were treated with 1-10 μM of S63845 (Selleck Chemicals S8383) or AZD5991 (Selleck Chemicals S8643) for 4 h before incubation with T cells. Both glycosylation and MCL1 inhibitors were maintained at indicated concentrations during co-culture with T cells.

[5] = test system: CCLF_MELM_0011_T primary patient-derived melanoma model; assay: T cell cytotoxicity assay, primary patient-derived melanoma model against AXL or HER2 CAR T cells; type: cell-based, human; conditions: CCLF_MELM_0011_T treated with small molecule inhibitor
Protocol: as §1

[6] = test system: A375 cells overexpressing B3GNT2; assay: Binding of recombinant T cell proteins to A375 cells, flow cytometry; type: cell-based, human
Protocol: as §2
Per condition, 5×10^5 cells were pelleted at 200×g for 5 min and washed once with PBS. Cell were fixed in 4% Formaldehyde in PBS at 4° C. for 10 mins. Cells were washed twice with PBS and resuspended in PBS with 25 μg/mL recombinant Fc chimera proteins [PVRIG (R&D Systems 9365-PV-050), CD226 (R&D Systems 666-DN-050), NKG2D (R&D 1299-NK-050), TREML2 (R&D Systems 3259-TL-050), CD2 (R&D Systems 1856-CD-050), CD96 (R&D Systems 9360-CD-050), TIGIT (BPS Bioscience 71186), CD27 (BPS Bioscience 71176), or 4-1BB (TNFRSF9; Sino Bio 10041-H03H)], 0.1 μg/mL HLA-A2:NY-ESO-1 Fab (Stewart-Jones et al., 2009), 5 μg/mL Fas antibody (Millipore Sigma 05-201), 25 μg/mL TNFRSF10B antibody (Novus Biologicals NB100-56618, 1:200), or Dylight 649 labeled Tomato Lectin (Vector Laboratories DL-1178, 1:100). Cells were incubated at 4° C. for 1 h. Cells were washed twice with PBS and resuspended in PBS with the appropriate secondary antibody [IgG Fc PE (Thermo Fisher Scientific 12-4998-82, 1:50), His Tag Alexa Fluor 647 (Thermo Fisher Scientific MA121315A647), mouse Alexa Fluor 568 (Thermo Fisher Scientific A-11031), or rabbit Alexa Fluor 647 (Thermo Fisher Scientific A-21244)]. Cells stained with Tomato Lectin were not incubated with additional secondary antibodies. […] For each sample, 10,000 cells were analyzed on a CytoFLEX Flow Cytometer (Beckman Coulter) and quantified with FlowJo (FlowJo). For each experiment, median fluorescence values for 3 biological replicates were compared to determine statistical significance.

O=C1N[C@@H]2[C@@H](O)[C@@H](O)[C@H](O)[C@@H](CO)N2C1=O [kifunensine]
T cell IFNγ secretion [1]: increased T cell IFNγ secretion | Cell survival against T cell cytotoxicity, SW1417 [2]: reduced survival | Ki [3]: 23 nM | Cell survival against T cell cytotoxicity, A375 ([4]; A375 treated with small molecule inhibitor): reduced survival | Cell survival against T cell cytotoxicity ([4]; B3GNT2-overexpressing A375 pretreated with inhibitor, E:T ratio of 3, kifunensine having a stronger effect): reduced A375 survival | Cell survival against T cell cytotoxicity, primary patient-derived melanoma model [5]: reduced survival | Binding of recombinant T cell proteins to A375 cells ([6]; B3GNT2-overexpressing A375 treated with inhibitor, CD2, 4-1BB, TREML2, NKG2D): rescued the reduction in T cell protein binding | HLA-A2:NY-ESO-1 antibody binding to A375 cells ([6]; B3GNT2-overexpressing A375 treated with kifunensine): further reduced binding
